# From a melting point compilation (Tetko et al.; mined from patent text by program, amines drawn as free bases though some values may be those of a salt)
row,Structure (SMILES),melting point
1,O=C1CCCC2(c3ccccc3)NCCCN12 (centres undefined),120 °C
2,CC1(C)COc2ccc(C(N)=O)cc21,136 to 138 °C
3,CCCC1=C(Cl)C(=O)c2ccccc2C1=O,71 to 73 °C
4,O=CN1CCc2ccccc2CC1,65 to 66 °C
5,CCCCCCCCCCCCCCOc1ccc(C(=O)OC)o1,56 to 58 °C
6,Cc1cccc2[nH]c(=O)n(S(=O)(=O)c3ccc(Cl)cc3)c(=O)c12,> 250 °C
7,OC[C@H](O)[C@H](O)[C@@H](O)[C@@H](O)C=NNc1ccccc1,198 to 199 °C
8,CCOP(=O)(Cc1ccc(-c2ccccc2)cc1)OCC,55 to 58 °C
9,C#CCn1c(=O)sc2cc(F)c(-n3c(OC)nc(C(F)(F)F)cc3=O)cc21,191 to 192 °C
10,CC=C1OC(=O)c2c(OC)cccc21,106 to 109 °C
11,CN(C)C=Nc1sc(C=Nc2ccccc2)c(Cl)c1C#N,174 °C
12,CC(=O)N1CCc2c([nH]c3ccc(Cl)cc23)C1CCCN1CCN(C)CC1 (centres undefined),59 to 61 °C
13,Cc1ccccc1C(c1c[nH]cn1)c1ccccc1C,228 to 231 °C
14,O=C1N(CCCCl)c2ccccc2C12COc1cc3c(cc12)OCO3 (centres undefined),144 to 146 °C
15,Clc1ccc2oc(SCCN3CCC(OC(c4ccccc4)c4ccccc4)CC3)nc2c1,98 to 101 °C
16,CCCCCCCCCCCCCCCCOCC(CNS(=O)(=O)CCCCl)COC (centres undefined),44 to 46.5 °C
17,CC(=O)Nc1ccccc1C(C)=O,99 to 100 °C
18,CCN1CCCC1CNC(=O)c1c(C)[nH]c(C=O)c1C (centres undefined),166 to 169 °C
19,O=C1c2ccccc2S(=O)(=O)N1C(c1cccs1)c1nnnn1-c1ccccc1 (centres undefined),192 to 193 °C
20,Nc1nc2c(ncn2COCCOC(=O)CCC(=O)O)c(=O)[nH]1,203 to 207 °C
21,COc1ccc(CCNC(=O)C(F)(F)F)cc1OC,93 °C
22,Cc1ccc(Cl)c2sc(N)nc12,206 °C
23,CCCCCCCCCCCCCCC(O)=S,60 to 62 °C
24,C[C@H](c1ccccc1)N1CCO[C@@H](c2ccc(Br)cc2)C1,85 to 87 °C
25,CC(C)[Si](C#Cc1ccc(-c2nc3cc(C#N)c(C#N)cc3[nH]2)cc1)(C(C)C)C(C)C,347 to 348 °C

row,Structure (SMILES),melting point
1,Cc1sc2ncc(CO)n2c1C,166 to 167 °C
2,NS(=O)(=O)c1ccc(S(=O)(=O)CC(O)CO)cc1 (centres undefined),140 to 147 °C
3,O=S1C(c2ccccc2)CC2(CC1c1ccccc1)OCCO2 (centres undefined),230 to 232 °C
4,CC(=CC(=O)c1cccs1)N1CCCC1,154 to 156 °C
5,CCCCc1cccc(NC(=O)C=C(C)OC)c1,36 °C
6,CCCc1c2c(nn1-c1ccccc1)c(=O)[nH]c1ccccc12,> 300 °C
7,CCCCCCCCNC(=O)N(C)C[C@H](O)[C@@H](O)[C@H](O)[C@H](O)CO,111 °C
8,Cc1nc2nc(S(=O)(=O)Nc3c(Cl)cccc3Cl)nn2cc1Br,215 to 216 °C
9,O=C1NC(=O)C(c2ccsc2)O1 (centres undefined),133 to 135 °C
10,O=C1C(=Cc2c(Cl)cccc2Cl)CCc2ccccc21,73.8 to 75.6 °C
11,C=CCn1c(SCCF)n[nH]c1=O,65 °C
12,CCCCC1=NC2(CCCC2)C(=O)N1Cc1ccc(-c2ccccc2S(=O)(=O)Nc2onc(C)c2C)c(CN2CCCC2=O)c1,95 to 100 °C
13,C#CC1(O)CCN(C(C)=O)CC1,132 to 134 °C
14,CCc1c(O)c(=O)ccn1CCOC(=O)C(C)(C)C,113 to 115 °C
15,CCOC(=O)c1cn(-c2nc(NC(C)(C)C)c(F)cc2F)c2c(Br)c(F)c(F)cc2c1=O,198 to 203 °C
16,CCc1nc2cccc(C)c2c(=O)n1-c1ccc(F)cc1,170 °C
17,Cc1cc(SC2=C(O)CC(C3CCCC3)(C3CCCC3)OC2=O)c(C(C)(C)C)cc1OS(=O)(=O)c1cn(C)cn1,143 to 145 °C
18,CCOC(=O)c1cn(NC=O)c2nc(C)ccc2c1=O,214 °C
19,CC1N=Cc2cc(Cl)ccc2-n2c(Cc3ccccc3)nnc21 (centres undefined),195 to 197 °C
20,CCc1cc(C(=O)O)c(S(N)(=O)=O)o1,186 °C
21,CCCCCCC(=O)Nc1cccc2c1C(=O)N(C1CCC(=O)NC1=O)C2=O (centres undefined),200 to 202 °C
22,COc1ccc(N2CCN(c3c(C)c4c(c(C(C)=O)c3C)OC(C)(C)C4)CC2)cc1,156 to 159 °C
23,CN(CCc1ccccc1)C(=O)Cn1cc(C=C(C(=O)O)C(C)(C)C)c2cc([N+](=O)[O-])ccc21,140 to 143 °C
24,CNC(=O)C1(CCCCCCCCO)CC2=C(C1)C(=O)C(OC)=C(OC)C2=O,120 to 123 °C

# Next, values leading:
row,melting point,Structure (SMILES)
1,121 to 123 °C,Oc1cc(OCc2ccccc2)cc(OCc2ccccc2)c1C[C@H](O)[C@@H](O)c1ccccc1
2,128 to 129 °C,COc1ccc2c(=O)n3cccc3oc2c1
3,149 °C,Cn1cc(Nc2ccc([N+](=O)[O-])cc2[N+](=O)[O-])cn1
4,233 to 235 °C,O=C(Cn1c(=O)[nH]c2ccccc21)c1c(-c2ccccc2)nc2ccccn12
5,51 to 53 °C,"CCCOC(C)c1ccc(OCc2ccccc2)cc1 (single isomer, unassigned; (+))"
6,160 to 162 °C,COCc1c(C(=O)OC(C)C)ncc2[nH]c3cccc(-c4cccs4)c3c12
7,90 to 93 °C,O=C(O)c1cc(OC(F)(F)F)ccc1[N+](=O)[O-]
8,83 to 86 °C,O=C1c2ccccc2S(=O)(=O)N1CCCOc1ccccc1
9,180 to 182 °C,CCCNC(=S)NC1=Nc2ccc(OC(F)(F)F)cc2SC1
10,224 to 226 °C,CCN(CC)C(=O)c1c(-c2ccccc2)[nH]c2ccccc12
11,217 to 218 °C,Nc1nc(NCCc2ccccc2)nc(-c2cc(Cl)ccc2Cl)n1
12,115 to 118 °C,CS(=O)(=O)c1ccc(C(CC2CCCC2)C(=O)Nc2nc3ccccc3s2)cc1C#N (centres undefined)
13,217 to 219 °C,NC(=O)Cc1c(-c2ccccc2)nn2cccnc12
14,164 to 166 °C,COc1ccc(/C=C(\C#N)c2c(Cl)cccc2Cl)cc1OC1CCCC1
15,192 to 193 °C,COc1ncc(C2Nc3ccccc3C(=O)N2c2cccc(C(F)(F)F)c2)cc1Br (centres undefined)
16,141 to 142 °C,CCOC(=O)Cn1nc(-c2ccc(OC)cc2)cc(C(=O)NC)c1=O
17,92 to 96 °C,Cc1ccc(C(Cn2ccnc2)C(=O)c2ccc(Cl)cc2Cl)cc1 (centres undefined)
18,83 to 86 °C,CN1CCC(c2nc(-c3ccccc3)c3ccccc3n2)CC1
19,47 to 48 °C,CCOC(=O)CCc1cn(-c2ccc(C(F)(F)F)cc2)nc1OCC
20,192 °C,OC1CSC(Oc2cnc(-c3ccncc3)c(F)c2)C(O)C1O (centres undefined)
21,178 to 181 °C,Cc1cccc(Nc2ncnc3cnc(NC4CCN(C#N)CC4)nc23)c1
22,175 to 176 °C,COc1cc(C)c(O)c(C(=O)NCCc2ccc(N=C(N)c3cccs3)cc2)c1
23,292 to 293 °C,Cc1c2c(c(-c3ccc4c(c3)OCO4)c3c4c(ccc13)OCO4)CNC2=O
24,300 °C,CCn1cc(C(=O)O)c(=O)c2ccc(C=NNc3ccc(O)cc3)nc21
25,125 to 127 °C,Cc1ccc2oc(N(C=O)[C@@H](Cc3ccccn3)c3ncc(-c4ccc(N5CCOCC5)cc4)n3C)cc2c1
26,67.7 to 68.3 °C,COc1ccc(-c2nn(CCCc3ccccc3)c(=O)cc2-c2ccncc2)cc1
27,83 to 84 °C,Cc1ccc(S(=O)(=O)OCC2COc3ccccc3C2)cc1 (centres undefined)
28,51 to 52 °C,Nc1ccc(Cl)cc1C(=O)c1ccccc1O

row,melting point,Structure (SMILES)
1,135 to 136 °C,O[C@@H]1CNCC[C@H]1Sc1ccccc1 (relative stereo)
2,133 to 134 °C,CC(C(=O)C(O)C1OC(n2cc(F)c(=O)[nH]c2=O)C(O)C1O)c1ccccc1 (mixture of isomers)
3,134 to 136 °C,COc1ccc(Cl)cc1C(=O)NCCc1ccc(-c2ccccc2)c(S(N)(=O)=O)c1
4,161 to 162 °C,C=C1C(O)C(CO)OC1n1cc(C)c(=O)[nH]c1=O (centres undefined)
5,> 250 °C,O=C(Nc1cccc2c1ncc1ccc(O)cc12)c1c(Cl)cccc1Cl
6,130 to 131 °C,CN1C(=O)CC[C@]2(C)c3ccc(-c4ccccc4[N+](=O)[O-])cc3CC[C@@H]12
7,> 300 °C,Cn1c2ccc(Cl)cc2c2c3ccccc3c(=O)[nH]c21
8,161 to 164 °C,CC(=O)OC1=CCc2c(Oc3ccc(NC(=O)c4ccc(Cl)c(Cl)c4)cn3)cccc21
9,178 °C,O=C(NC(=O)C(c1ccccc1)c1ccccc1)C1CC1
10,131 to 133 °C,COc1ccc2c(c1)c(Cc1cc(=O)n(-c3ccc(C)cc3)[nH]1)c(C)n2C(=O)c1ccc(Cl)cc1
11,119 °C,O=c1ssc(-c2cnccn2)c1CBr
12,143 to 145 °C,CNC(=O)N(O)Cc1cccc(Nc2ccccc2C(=O)OC)c1Cl
13,187 to 188 °C,Cc1nc(N)c2nc(C)n(CCOCC#Cc3ccccc3)c2c1C
14,168 to 174 °C,CC(C)(C)OC(=O)N1CCn2c(Br)c(-c3cccc(F)c3)c(C(N)=O)c2C1
15,137 to 139 °C,O=C1N(Cc2noc(C(F)F)n2)c2ccccc2C12COc1cc3c(cc12)OCO3 (centres undefined)
16,122 to 124 °C,O=[N+]([O-])c1cccnc1Sc1ncccn1
17,268 to 270 °C,Oc1ccc(Nc2nccc(-c3ccncc3)n2)cc1
18,140 to 141 °C,CN(C)CCCNC(=O)c1ccc(-c2nnc(CSCCOc3ccc(Cl)cc3Cl)o2)cc1
19,141 to 142 °C,CC(C)CCc1cc(C(O)=S)cc(N)c1C(=O)c1ccccc1
20,131 to 132 °C,S=c1nc2ccc(Cl)cn2c(=S)n1-c1ccc(Cl)cn1
21,173 °C,NC(=S)N1CCc2cccnc21
22,74.5 to 76.5 °C,ClC(Cl)=Cc1ccc(OCc2ccccc2)cc1
23,155 to 158 °C,COCO[C@@H](C(=O)OC)[C@@H](Sc1ccccc1[N+](=O)[O-])c1ccc(OC)cc1
24,227 to 228 °C,CC(C)(C(N)=O)n1cc(-c2ccc(Oc3ccccc3)cc2)c2c(N)ncnc21
25,128 to 130 °C,O=C(Cc1ccncc1)[N+]1([O-])CCC(=C2c3ccc(Cl)cc3CCc3cccnc32)CC1 (centres undefined)
26,352 to 357 °C,CC(C)(C)C(=O)Oc1n[nH]c(=O)c2nc3cc(Cl)ccc3c(O)c12
27,100 to 101 °C,N#CCCN1CCC(c2noc3cc(F)ccc23)CC1
